Molecular target: T1, LXRβ (Homo sapiens, UniProt P55055)
T1 construct: Co-transfection expression plasmids, comprising full-length LXRα (pCMX-h LXRα[…] or LXRβ (pCMX-hLXRβ)); expressed in transfected cells; host or cells: CV-1 African Green Monkey Kidney Cells
T1 sequence (P55055 1-460): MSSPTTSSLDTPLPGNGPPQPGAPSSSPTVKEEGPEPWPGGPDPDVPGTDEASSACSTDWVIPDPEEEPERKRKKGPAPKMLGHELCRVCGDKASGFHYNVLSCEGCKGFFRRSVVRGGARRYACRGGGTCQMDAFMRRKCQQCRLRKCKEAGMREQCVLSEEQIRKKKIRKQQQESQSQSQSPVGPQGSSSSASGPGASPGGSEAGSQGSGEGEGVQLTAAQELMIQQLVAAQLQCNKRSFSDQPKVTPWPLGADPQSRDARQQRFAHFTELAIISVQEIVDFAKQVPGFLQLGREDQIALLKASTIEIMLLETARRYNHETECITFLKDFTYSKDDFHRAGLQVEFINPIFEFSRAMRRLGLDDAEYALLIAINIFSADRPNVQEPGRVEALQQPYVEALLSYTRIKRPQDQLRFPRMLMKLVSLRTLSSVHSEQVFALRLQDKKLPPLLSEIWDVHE
T1 sequence (P19793 1-462 partner): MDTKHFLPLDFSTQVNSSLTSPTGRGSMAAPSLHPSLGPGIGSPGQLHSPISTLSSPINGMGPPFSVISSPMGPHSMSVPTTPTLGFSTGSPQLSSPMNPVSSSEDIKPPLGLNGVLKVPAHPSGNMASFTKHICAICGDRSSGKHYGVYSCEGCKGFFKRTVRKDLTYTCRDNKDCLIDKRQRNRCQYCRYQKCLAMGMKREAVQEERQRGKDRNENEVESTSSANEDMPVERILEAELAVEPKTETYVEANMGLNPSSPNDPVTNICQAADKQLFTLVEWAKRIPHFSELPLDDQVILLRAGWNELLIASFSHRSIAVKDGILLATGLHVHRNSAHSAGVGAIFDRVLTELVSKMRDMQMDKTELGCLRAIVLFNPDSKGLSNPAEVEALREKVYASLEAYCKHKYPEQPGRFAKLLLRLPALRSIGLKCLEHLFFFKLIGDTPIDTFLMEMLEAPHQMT
Experiment: Co-transfection assay (LXRE luciferase reporter), LXRβ
Format: cell-based
Conditions: for EC50: CV-1 cells transfected with pCMX-hLXRβ and LXREx1-Tk-Luciferase, 20 hours incubation; for Emax: LXRβ co-transfection, relative to high control 1-(2,4-difluorobenzyl)-2-oxo-6-(4-phenoxyphenyl)-4-(trifluoromethyl)-1,2-dihydropyridine-3-carbonitrile, read-out: % Efficacy
Method in brief: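 CV-1 cells transiently co-transfected with full-length human LXRβ expression plasmid, LXREx1-Tk-luciferase reporter and β-galactosidase control, then exposed to compound for 20 h at 37 °C. Luciferase luminescence read; EC50 from 11-point, ½-log dose–response fit, efficacy relative to high-control agonist maximum.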

Row | EC50 | Emax | Compound
1 | 1040 nM | 26% | Cc1nc(-c2cc(-c3cc(F)c(CO)c(S(C)(=O)=O)c3)ccc2-n2cc(C(C)(C)O)nc2C)c(-c2ccc3c(c2)OC(F)(F)O3)o1 [Example 370, 2-(1-(3-(5-(2,2-difluorobenzo[d][1,3]dioxol-5-yl)-2-methyloxazol-4-yl)-3′-fluoro-4′-(hydroxymethyl)-5′-(methylsulfonyl)biphenyl-4-yl)-2-methyl-1H-imidazol-4-yl)propan-2-ol]
2 | 146 nM | 47% | CCC(F)(F)c1cn(-c2ccc(-c3cccc(S(C)(=O)=O)c3)cc2-c2nc(C)oc2-c2ccc(OC(F)(F)F)cc2)c(C)n1 [Example 517, 4-(4-(4-(1,1-difluoropropyl)-2-methyl-1H-imidazol-1-yl)-3′-(methylsulfonyl)-[1,1′-biphenyl]-3-yl)-2-methyl-5-(4-(trifluoromethoxy)phenyl)oxazole]
3 | 15 nM | 79% | Cc1nc(-c2cc(-c3cc(F)c(CO)c(S(C)(=O)=O)c3)ccc2-n2cc(C(F)(F)F)nc2C)c(-c2ccc(OC(F)F)nc2)o1 [Example 385, (3′-(5-(6-(difluoromethoxy)pyridin-3-yl)-2-methyloxazol-4-yl)-3-fluoro-4′-(2-methyl-4-(trifluoromethyl)-1H-imidazol-1-yl)-5-(methylsulfonyl)biphenyl-4-yl)methanol]
4 | 605 nM | 65% | Cc1nc(C(F)(F)F)cn1-c1ccc(-c2cccc(S(C)(=O)=O)c2)cc1-n1nncc1-c1ccc2c(c1)OCO2 [Example 29, 5-(1,3-benzodioxol-5-yl)-1-{3′-(methylsulfonyl)-4-[2-methyl-4-(trifluoromethyl)-1H-imidazol-1-yl]biphenyl-3-yl}-1H-1,2,3-triazole]
5 | 3330 nM | 63% | Cc1nc(C(F)(F)F)cn1-c1ccc(-c2cccc(S(C)(=O)=O)c2)cc1-n1nncc1-c1ccc(F)cn1 [Example 77, 5-fluoro-2-(1-{3′-(methylsulfonyl)-4-[2-methyl-4-(trifluoromethyl)-1H-imidazol-1-yl]biphenyl-3-yl}-1H-1,2,3-triazol-5-yl)pyridine]

The next lines start with the molecule.

Row | Compound | EC50 | Emax
6 | Cc1nc(-c2ccc(OC(F)(F)F)cc2)c(-c2cc(-c3cccc(S(C)(=O)=O)c3)ccc2-n2cc(C(F)(F)F)nc2C)o1 [Example 604, 2-methyl-5-(4-(2-methyl-4-(trifluoromethyl)-1H-imidazol-1-yl)-3′-(methylsulfonyl)-[1,1′-biphenyl]-3-yl)-4-(4-(trifluoromethoxy)phenyl)oxazole] | 54 nM | 86%
7 | Cc1nc(C(F)(F)F)cn1-c1c(F)cc(-c2cccc(S(C)(=O)=O)c2)cc1-n1nncc1-c1ccc(Cl)cc1Cl [Example 8, 5-(2,4-dichlorophenyl)-1-{5-fluoro-3′-(methylsulfonyl)-4-[2-methyl-4-(trifluoromethyl)-1H-imidazol-1-yl]biphenyl-3-yl}-1H-1,2,3-triazole] | 143 nM | 91%
8 | Cc1nc(C(F)(F)F)c(Cl)n1-c1ccc(-c2cccc(S(C)(=O)=O)c2)cc1-n1nncc1-c1ccc(OC(F)(F)F)cc1 [Example 55, 1-{4-[5-chloro-2-methyl-4-(trifluoromethyl)-1H-imidazol-1-yl]-3′-(methylsulfonyl)biphenyl-3-yl}-5-{4-[(trifluoromethyl)oxy]phenyl}-1H-1,2,3-triazole] | 180 nM | 110%
9 | Cc1nc(C(N)=O)cn1-c1ccc(-c2cc(F)c(CO)c(S(C)(=O)=O)c2)cc1-c1nc(C2CC2)oc1-c1ccc2c(c1)OC(F)(F)O2 [Example 490, 1-(3-(2-cyclopropyl-5-(2,2-difluorobenzo[d][1,3]dioxol-5-yl)oxazol-4-yl)-3′-fluoro-4′-(hydroxymethyl)-5′-(methylsulfonyl)biphenyl-4-yl)-2-methyl-1H-imidazole-4-carboxamide] | 76 nM | 54%
